We go through 2 compounds from patent US8226963B2, “Feed-through lignin-pesticide compositions” (Wellmark International, priority 2005, dated 2012).

What all share (type): in vivo
Data set [1] is described as follows: Barium (BaSO4) passing into the manure of chickens. The following applies: for Amount of Barium, % found in manure: 0.093% in feed. The source says:
This example illustrates a determination of the maximum concentration of any active agent that will pass into the manure of chickens.
Briefly, chicken feed was formulated using a pulverized cattle bolus which contained barium in the form of BaSO4.

Data set [2] in a line: Enteric Matrix/Coating of Methoprene Feed Through Study in chickens. As to conditions: Feed Rate 23.8 ppm. The source says:
This example illustrates a study of methoprene versus enteric coated methoprene. The results below indicate that there is no difference in % recovery between technical grade methoprene and enteric coated methoprene or matrix treated methoprene.

Data set [3] in a line: Methoprene found in manure of horses fed treated feed as top dressing. As to conditions: Average of Day 0-Day 10. The method, then: This example illustrates a study in horses comparing an inventive formulation containing a lignin-methoprene complex with a formulation containing free methoprene.
Four horses were fed the formulations for eleven days and their manure was tested every 24 hours.

A short description of data set [4]: Methoprene found in manure of cats fed treated cat food. The following applies: for Calculated Methoprene (ppm) in manure: cats Q, S, T. How it is done: This example illustrates a study in cats comparing an inventive formulation containing lignin-methoprene complexes with a formulation containing free methoprene.
Three cats were fed the formulations for a week and their manure was tested every 24 hours.

Data set [5] is described as follows: Methoprene found in manure of cows fed treated feed as top dressing. As to conditions: Average of Day 1-Day 10. The method, then: This example illustrates a study in cattle comparing an inventive formulation containing a lignin-methoprene complex with a formulation containing free methoprene.
Four cows were fed the formulations for eleven days and their manure was tested every 24 hours.

[6] abbreviates: horse Bettor Lad, AI fed 8.94 ppm.

Values joined by “and” are separate entries in the source; they are usually repeats but may differ in a detail not shown here. Equal values may be shown once.

As for `O=S(=O)([O-])[O-].[Ba+2]` [Barium, BaSO4], the “% of initial BaSO4 found in manure” value in data set [1] (4 hr.) was determined as 1.78%; in data set [1] (24 hr.), 48.90%; in data set [1] (48 hr.), 59.90%; in data set [1] (72 hr.) it was 50.60%. The “Amount of Barium, % found in manure” value in data set [1] (4 hr. after feeding) was determined as 0.00165%; in data set [1] (24 hr. after feeding) it was 0.0455%; in data set [1] (48 hr. after feeding), 0.0557%; in data set [1] (72 hr. after feeding) it was 0.0471%.
On to `COC(C)(C)CCCC(C)C/C=C/C(C)=C/C(=O)OC(C)C` (stereo not drawn) [free methoprene, methoprene], for which the “% Recovery” value in data set [2] is 12.22%. In addition, in data set [2] (feed Egg Buster), the “Manure Rate ppm (methoprene)” value is listed as 2.91 ppm. For the same compound, the “AI manure ppm” value in data set [3] (setting [6]) came out at 1.29 ppm; in data set [3] (horse Dancer, AI fed 8.61 ppm), 1.30 ppm; in data set [5] (cow 10 R/W, AI fed 8.94 ppm), 0.16 ppm; in data set [5] (cow 16 Black, AI fed 12.58 ppm) it was 0.35 ppm. Besides, the Percent pass through worked out at 14.4% in data set [3] (setting [6]); 15.1% in data set [3] (horse Dancer, AI fed 8.61 ppm); 1.8% in data set [5] (cow 10 R/W, AI fed 8.94 ppm); 2.8% in data set [5] (cow 16 Black, AI fed 12.58 ppm). Moreover, the “Avg. % pass through by Group” value in data set [3] (horses, two per group) is listed as 14.75%; in data set [5] (cows, two per group), 2.3%. Also, the “Day 1 Avg. methoprene in manure” value in data set [4] (cat food @ 36.2 ppm, 24 hr) amounted to 0.63 ppm. The “Day 1 Avg. methoprene recovered in manure (%)” value in data set [4] (cat food @ 36.2 ppm, 24 hr) is given as “(1.7%)”. Also, the “Day 2 Avg. methoprene in manure” value in data set [4] (cat food @ 36.2 ppm, 48 hr) stood at 2.2 ppm. The “Day 2 Avg. methoprene recovered in manure (%)” value in data set [4] (cat food @ 36.2 ppm, 48 hr) is recorded as “(6.1%)”. For the same compound, in data set [4] (cat food @ 36.2 ppm, 72 hr), the “Day 3 Avg. methoprene in manure” value was 1.8 ppm. The “Day 3 Avg. methoprene recovered in manure (%)” value in data set [4] (cat food @ 36.2 ppm, 72 hr) was “(5.0%)”. For the same compound, the “Day 4 Avg. methoprene in manure” value in data set [4] (cat food @ 36.2 ppm, 96 hr) is 1.9 ppm. Moreover, the “Day 4 Avg. methoprene recovered in manure (%)” value in data set [4] (cat food @ 36.2 ppm, 96 hr) is reported as “(5.2%)”. The “Calculated Methoprene (ppm) in manure” value in data set [4] (cat food @ 36.2 ppm, Day 0 (0 hr)) is 0 ppm; in data set [4] (cat food @ 36.2 ppm, Day 1 (24 hr), listed as Free Methoprene Lot # 491-166) it was 0.6 ppm and 0.7 ppm; in data set [4] (cat food @ 36.2 ppm, Day 2 (48 hr), listed as Free Methoprene Lot # 491-166), 2.4 ppm and 2.5 ppm and 1.6 ppm; in data set [4] (cat food @ 36.2 ppm, Day 3 (72 hr), listed as Free Methoprene Lot # 491-166) it was 2.0 ppm and 1.5 ppm. In addition, in data set [4] (range of daily averages Day 1-Day 4), the “amount of methoprene recovered from the manure of cats” value is given as 1.7-6.1%.
